According to patent US20160145242A1, “PHENYLIMIDAZOLE DERIVATIVE, AND THERAPEUTIC MEDICINE OR PREVENTIVE MEDICINE FOR INFLAMMATORY DISEASE, ETC” (NIPPON SODA CO., LTD., priority 2013, published 2016):
Read-outs that look alike come from different tables or passages of the source.

Experiments:
CYP2D6 = target: T1, CYP2D6 (Homo sapiens, UniProt P10635); assay: Cytochrome P450 inhibitory action, CYP2D6 in human liver microsomes; type: in vitro ADME; settings: substrate dextromethorphan
T1 construct: Using human liver microsomes pooled as an enzyme source; from tissue; host or cells: pooled human liver microsomes
T1 sequence (P10635 whole entry): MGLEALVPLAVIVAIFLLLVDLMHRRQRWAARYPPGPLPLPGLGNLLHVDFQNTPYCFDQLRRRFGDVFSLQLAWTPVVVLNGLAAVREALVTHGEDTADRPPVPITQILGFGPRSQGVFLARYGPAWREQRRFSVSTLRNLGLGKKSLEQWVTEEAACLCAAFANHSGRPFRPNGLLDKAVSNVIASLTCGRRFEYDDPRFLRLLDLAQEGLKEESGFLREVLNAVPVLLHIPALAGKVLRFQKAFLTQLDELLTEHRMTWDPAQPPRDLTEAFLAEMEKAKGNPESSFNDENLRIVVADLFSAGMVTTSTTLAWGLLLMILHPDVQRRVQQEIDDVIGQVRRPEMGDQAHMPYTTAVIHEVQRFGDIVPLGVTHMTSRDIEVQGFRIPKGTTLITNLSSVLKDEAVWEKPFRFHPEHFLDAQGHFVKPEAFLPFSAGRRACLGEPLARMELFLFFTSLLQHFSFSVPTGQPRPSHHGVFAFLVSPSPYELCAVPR
Method: (§1) An inhibitory action of the compound of the present invention with respect to CYP2D6 (dextromethorphan was used as a substrate) and CYP3A4 (midazolam and testosterone were used as substrates) which are isozymes of cytochrome P450 (hereinafter, referred to as “CYP”) serving as a major drug-metabolizing enzyme was examined using human liver microsomes.
Using human liver microsomes pooled as an enzyme source, 1.3 mM NADP as a coenzyme, 3.3 mM D-glucose-6-phosphate, and 0.4 U/mL D-glucose-6-phosphate dehydrogenase, the corresponding substrate ([…] dextromethorphan for CYP2D6, 5 μM midazolam or 50 µM testosterone for CYP3A4) and the compound of the present invention were added such that the final concentration became 0.1, 1, 10 μM and then incubated at 37° C. for 10 minutes. The inhibition rate (%) of the compound of the present invention in each concentration was calculated by quantifying metabolites (CYP2D6; dextrorphan, CYP3A4; 1-hydroxymidazolam or 6β hydroxytestosterone) using HPLC-MS/MS and setting the value of the activity of an enzyme when drug was not incorporated therein as 100%. […]

CYP3A4 = target: T2, CYP3A4 (Homo sapiens, UniProt P08684); assay: Cytochrome P450 inhibitory action, CYP3A4 in human liver microsomes; type: in vitro ADME; settings: for inhibition at 10 min, 10 µM: pooled human liver microsomes, read-out: inhibition rate in the shown concentration
T2 construct: Using human liver microsomes pooled as an enzyme source; from tissue; host or cells: pooled human liver microsomes
T2 sequence (P08684 whole entry): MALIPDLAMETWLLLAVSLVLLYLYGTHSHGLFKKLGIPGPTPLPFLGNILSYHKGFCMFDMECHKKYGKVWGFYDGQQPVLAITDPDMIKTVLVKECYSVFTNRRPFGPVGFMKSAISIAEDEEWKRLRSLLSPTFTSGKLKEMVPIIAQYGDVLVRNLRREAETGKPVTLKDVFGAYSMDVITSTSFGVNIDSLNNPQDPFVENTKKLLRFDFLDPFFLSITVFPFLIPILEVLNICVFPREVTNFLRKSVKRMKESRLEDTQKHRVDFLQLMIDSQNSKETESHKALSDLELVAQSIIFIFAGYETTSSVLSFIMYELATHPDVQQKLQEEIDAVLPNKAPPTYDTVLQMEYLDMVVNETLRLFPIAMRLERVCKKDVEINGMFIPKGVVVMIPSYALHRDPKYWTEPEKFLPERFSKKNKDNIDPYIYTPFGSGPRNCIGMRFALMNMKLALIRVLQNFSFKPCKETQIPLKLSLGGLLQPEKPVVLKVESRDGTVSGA
Method: as §1
Using human liver microsomes pooled as an enzyme source, 1.3 mM NADP as a coenzyme, 3.3 mM D-glucose-6-phosphate, and 0.4 U/mL D-glucose-6-phosphate dehydrogenase, the corresponding substrate ([…] dextromethorphan for CYP2D6, 5 μM midazolam or 50 µM testosterone for CYP3A4) and the compound of the present invention were added such that the final concentration became 0.1, 1, 10 μM and then incubated at 37° C. for 10 minutes. The inhibition rate (%) of the compound of the present invention in each concentration was calculated by quantifying metabolites (CYP2D6; dextrorphan, CYP3A4; 1-hydroxymidazolam or 6β hydroxytestosterone) using HPLC-MS/MS and setting the value of the activity of an enzyme when drug was not incorporated therein as 100%. 50% inhibitory concentration IC50 (μM) was calculated by drawing a straight line between the concentration where the inhibition rate exceeds 50% and the concentration where the inhibition rate is less than 50% in a graph showing a relationship between the inhibition rate and the concentration and interpolating the concentration that becomes 50% inhibition.

[1] = target: T3, rabbit reticulocyte-derived 15-lipoxygenase (Oryctolagus cuniculus, UniProt P12530); assay: 15-Lipoxygenase activity inhibitory action; type: biochemical
T3 construct: Rabbit reticulocyte-derived 15-lipoxygenase; from tissue; host or cells: rabbit reticulocytes
T3 sequence (P12530 1-663): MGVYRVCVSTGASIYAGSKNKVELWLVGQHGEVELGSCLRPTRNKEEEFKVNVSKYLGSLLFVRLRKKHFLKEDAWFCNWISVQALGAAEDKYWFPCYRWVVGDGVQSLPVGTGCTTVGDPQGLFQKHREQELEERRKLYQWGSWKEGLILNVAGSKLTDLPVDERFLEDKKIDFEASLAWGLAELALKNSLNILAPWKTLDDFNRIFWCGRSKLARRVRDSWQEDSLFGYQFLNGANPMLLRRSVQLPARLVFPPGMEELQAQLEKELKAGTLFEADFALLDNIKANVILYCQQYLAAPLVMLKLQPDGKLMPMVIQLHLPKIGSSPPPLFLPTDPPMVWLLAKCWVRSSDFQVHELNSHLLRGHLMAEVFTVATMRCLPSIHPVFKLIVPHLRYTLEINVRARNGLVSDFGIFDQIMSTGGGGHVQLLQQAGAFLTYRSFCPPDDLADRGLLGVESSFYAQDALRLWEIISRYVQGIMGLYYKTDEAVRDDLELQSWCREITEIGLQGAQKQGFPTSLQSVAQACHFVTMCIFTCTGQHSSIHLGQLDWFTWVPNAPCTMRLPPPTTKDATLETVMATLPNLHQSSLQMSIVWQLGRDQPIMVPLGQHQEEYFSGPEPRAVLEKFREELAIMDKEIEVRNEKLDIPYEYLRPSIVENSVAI
Method: The inhibitory action of the compound of the present invention with respect to the activity of the present enzyme was examined using rabbit reticulocyte-derived 15-lipoxygenase.
Rabbit reticulocyte-derived 15-lipoxygenase was reacted with 260 μM of linoleic acid and the amount of 13-hydroperoxide which was a reaction product was measured using an absorption spectrometer.

[2] = target: T4, guinea pig lung-derived leukotriene C4 synthase (Cavia porcellus, UniProt A6XA80); assay: Leukotriene C4 synthase activity inhibitory action; type: biochemical; settings: read-out: leukotriene C4 synthase activity inhibition rate
T4 construct: guinea pig lung-derived leukotriene C4 synthase; from tissue; host or cells: Dunkin-Hartley guinea pig lung
T4 sequence (A6XA80 1-150): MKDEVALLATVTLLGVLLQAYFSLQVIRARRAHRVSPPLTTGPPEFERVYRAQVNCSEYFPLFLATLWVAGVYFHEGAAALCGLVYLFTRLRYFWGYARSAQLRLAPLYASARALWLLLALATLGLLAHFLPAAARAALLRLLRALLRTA
Method: The inhibitory action according to the compound of the present invention with respect to the activity of the present enzyme was examined using guinea pig lung-derived leukotriene C4 synthase.
Dunkin-Hartley guinea pig lung-derived leukotriene C4 synthase was reacted with 2.50 μg/mL of leukotriene A4 and the amount of leukotriene C4 which was a reaction product was measured by an enzyme-linked immunosorbent assay. 3 μM of the compound of the present invention dissolved in dimethyl sulfoxide was added to the reaction system and the inhibition rate of leukotriene C4 generation (leukotriene C4 synthase activity inhibition rate) was measured.

[3] = tested on: rattlesnake-derived phospholipase A2-II; assay: Phospholipase A2-II activity inhibitory action; type: biochemical; settings: 3 μM
Method: The inhibitory action of the compound according to the present invention with respect to the activity of the present enzyme was examined using rattlesnake-derived phospholipase A2-II.
The rattlesnake-derived phospholipase A2-II was reacted with 0.030 μCi of 1-palmitoyl-2-[1-^14C]oleoyl-L-3-phosphatidylcholine and the amount of ^14C oleate which was a reaction product was measured by a radiation measurement method. 3 μM of the compound according to the present invention dissolved in dimethyl sulfoxide was added to the reaction system and the inhibition rate of ^14C oleate generation (phospholipase A2-II activity inhibition rate) was measured.

## CC(=O)N1CCN(c2ccc(N)c(-n3ccnc3)c2)CC1 [Compound 1-1, 4-acetyl-1-(4-amino-3-imidazole-1-yl-phenyl)piperazine]
CYP2D6; pooled human liver microsomes, probe dextromethorphan (printed 5 M), 10 μM, read-out: inhibition rate in the shown concentration
  inhibition at 10 min, 10 µM: 36%
CYP2D6
  IC50: > 10 µM
CYP3A4; probe midazolam (5 μM), substrate midazolam
  inhibition at 10 min, 10 µM: 28%
CYP3A4; probe testosterone (50 M [sic]), substrate testosterone
  inhibition at 10 min, 10 µM: 6%
CYP3A4; substrate midazolam
  IC50: > 10 µM
CYP3A4; substrate testosterone
  IC50: > 10 µM
[1]; 3 μM, substrate linoleic acid 260 μM, read-out: 15-lipoxygenase activity inhibition rate
  inhibition at 3 µM: 49%
[1]; estimated from 49% inhibition at 3 μM, read-out: 50% inhibitory concentration with respect to 15-lipoxygenase activity
  IC50: ~3 µM
[2]
  inhibition at 3 µM: 27%
[3]
  phospholipase A2-II activity inhibition rate: 12%
